Where “and” joins values, the source holds several entries; their conditions need not be identical. Equal entries are not always repeated. Where two headings read alike, the source gives them in different places.
Experiments:
[1] = test system: HIV-1 replication in human PBM cells; experiment: microbe, parasite or virus in culture; assay type: cell-based
Protocol: Cells and viruses. […] Antimicrobial Agents Chemother 1992;36(11): 2423-2431.
Cell pellets were washed, centrifuged, lysed and the proviral DNA extracted as previously described. Cytotoxicity of the compounds was determined using the Promega Cell Titer 96 dye uptake assay (Madison, Wis.) in 1-2 day PHA-stimulated PBM cells after 5 days in culture. The median effective concentration (EC50) and inhibitory concentration (IC50) were derived from the computer-generated median effect plot of the dose-effect data, as described previously.

[2] = test system: drug-resistant HIV-1 in PBMC; experiment: microbe, parasite or virus in culture; assay type: cell-based; settings: for EC50: Human immunodeficiency virus 1, PBMC, PBMC
[3] = test system: drug-resistant HIV-1 in MT-2; experiment: microbe, parasite or virus in culture; assay type: cell-based; settings: MT-2
[4] = test system: drug-resistant HIV-1 in MT-4; experiment: microbe, parasite or virus in culture; assay type: cell-based
[5] = test system: drug-resistant HIV-1 in HeLa HT4-6C; experiment: microbe, parasite or virus in culture; assay type: cell-based; settings: Human immunodeficiency virus 1, HeLa
[6] = test system: recombinant HIV-1 virus isolates; assay type: cell-based
Text: The aim of the study was to determine the potency of the inhibitory effect of a new generation of NRTIs on Multi Drug Resistant isolates and to compare it with their effect on wild-type HIV-1 isolates. All recombinant viruses were taken from the VIRCO repository of phenotypically and genotypically characterized virus isolates. Hirsch et al. Antiretroviral Drug Resistance Testing in Adults with HIV Infection. JAMA; 1998: 79(24) 1984-1991. See also Pauwels et al. Comprehensive HIV drug Resistance monitoring using rapid, high-throughput phenotypic and genotypic assays with correlative data analysis. Antiviral Therapy, 1998: 3: 35 Abstract 51.
Phenotypic drug susceptibility determination of recombinant virus isolates is described in Hertogs et al. A Rapid Method for Simultaneous Detection of Phentypic Resistance to Inhibitors of Protease and Reverse Transcriptase in Recombinant HIV-1 Isolates from Patients Treated with Antiretroviral Drugs. Antimicrob. Agents Chemother. 1998; 42(2): 269-276. The basic principle of the Antivirogram® technology is the construction of chimeric HIV-1 strains composed of the protease (PR) and reverse transcriptase (RT) gene sequences which are isolated and amplified from patient viral RNA. Amplicons are subsequently transfected into CD4+T cells together with a standard laboratory isogenic (HXB2) HIV-1 DNA construct from which the PR/RT gene sequences were deleted. After homologous recombination, new viruses whose diversity reflects the original population amplified from the plasma are produced at high level from these cells.
The virus infectivity (CCID50) is determined by an end-point dilution method. The titer is calculated from the degree of infection, measured by the intensity of reporter-gene signal as generated by serial dilutions of the virus shock. The chimeric (clinical isolates and wild-type reference) viruses are then analyzed for their phenotypic sensitivity (i.e. susceptibility) to the different PR and RT-inhibitors in an automated reporter gene-based assay using serial dilutions of the compound. The standardisation of the Antivirogram®n assay allows for simultaneous testing of all clinically approved drugs in one 384-well microtiter plate. The experimental drugs are included in separate plates. Each plate contains multiple replicates of mock-infected wells, virus-infection control wells and blank (medium-only) well. All plates are tested in duplicate. 50% Inhibitory concentrations are calculated based on reporter signals obtained through optical reading of 384-well plates containing serial dilutions of compounds, a normalised quantity of virus and by taking into account all relevant control wells. Approval (or not) is done according to critical ranges and settings as described in the corresponding VIRCO Standard Operating Procedure.
A more detailed description of the protocol is as follows. Samples were stored frozen. […] To confirm the genotypic pattern, genotyping (ABI-sequencing) was performed after recombination and culture of the laboratory strains by analysis of cell viability, calculation of results (dose-response curves, IC50 values), and reporting of data.

[7] = test system: HIV; settings: U.S. Pat. No. 4,916,122; cited from earlier work
[8] = U.S. Pat. No. 4,916,122; cited from earlier work
[9] = Human immunodeficiency virus 1, PBMC, 144 h
[10] = clinical isolate (pre) prior to long-term ZDV monotherapy, row HIV-1 (A012D), read-out: Untreated EC50
[11] = clinical isolate HIV-1 (A012D:M41L?/D67N/K70R/T215F/K219Q), read-out: Selected Varient EC50

In the case of `[N-]=[N+]=N[C@H]1C[C@H](n2ccc(=O)[nH]c2=O)O[C@@H]1CO` [CS-87, 3′-Azido-2′,3′-dideoxyuridine], the “m ± SE (slope of median effect plot)” value [1] is reported as 1.62 ± 0.13 and 1.50 ± 0.33 and 1.01 ± 0.01, the inhibition at 10 µM [1, 9] is reported as 34.5% and the inhibition at 100 µM [1, 9] is reported as 32%. The inhibition at 1000 µM [1, 9] was 87.3%, the “fold change in EC50” value [2] was < 3 fold and the EC50 [2, 10] was 400 nM. For the same molecule, the EC50 [2, 11] was 16500 nM, the EC50 ([2]; molecular clone 1 (T215Y/M41L), read-out: Selected Varient EC50) was 2100 nM and the EC50 ([2]; molecular clone (M184V/T215Y), read-out: Selected Varient EC50) was 1100 nM. It also gave an EC50 ([2]; molecular clone HIV-1 (D67N/K70R/T215Y/K219Q), read-out: Selected Varient EC50) of 300 nM, an EC50 ([2]; molecular clone HIV-1 (K65R), read-out: Selected Varient EC50) of 1100 nM and an EC50 ([2]; molecular clone HIV-1 (L74V), read-out: Selected Varient EC50) of 600 nM. For the same molecule, the EC50 ([2]; molecular clone HIV-1 (M184V), read-out: Selected Varient EC50) was 600 nM, the EC50 ([2]; molecular clone HIV-1 (T215Y), read-out: Selected Varient EC50) was 300 nM and the EC50 ([2]; parent strain HIV-1 (xxLAI), row 1 (T215Y/M41L), read-out: Untreated EC50) was 1100 nM. It also gave an EC50 ([2]; parent strain HIV-1 (xxLAI), row (M184V/T215Y), read-out: Untreated EC50) of 1100 nM, an EC50 ([2]; parent strain HIV-1 (xxLAI), row HIV-1 (D67N/K70R/T215Y/K219Q), read-out: Untreated EC50) of 1100 nM and an EC50 ([2]; parent strain HIV-1 (xxLAI), row HIV-1 (K65R), read-out: Untreated EC50) of 1100 nM. It also gave an EC50 ([2]; parent strain HIV-1 (xxLAI), row HIV-1 (L74V), read-out: Untreated EC50) of 1100 nM, an EC50 ([2]; parent strain HIV-1 (xxLAI), row HIV-1 (M184V), read-out: Untreated EC50) of 1100 nM and an EC50 ([2]; parent strain HIV-1 (xxLAI), row HIV-1 (T215Y), read-out: Untreated EC50) of 1100 nM. The EC50 ([3]; Human immunodeficiency virus 1, MT2, molecular clone HIV-1 (D67N/K70R/M184V/T215Y/K219Q), read-out: Selected Varient EC50) was 53400 nM, the EC50 ([3]; Human immunodeficiency virus 1, MT2, molecular clone HIV-1 (D67N/K70R/T215Y/K219Q), read-out: Selected Varient EC50) was > 90000 nM and the EC50 ([3]; Human immunodeficiency virus 1, MT2, molecular clone HIV-1 (M41L/D67N/M184V/H208Y/L210W/R211K/L214F/T215Y), read-out: Selected Varient EC50) was 50200 nM. The EC50 ([3]; Human immunodeficiency virus 1, MT2, molecular clone HlV-1 (M184V), read-out: Selected Varient EC50) was 16800 nM, the EC50 ([3]; Human immunodeficiency virus 1, MT2, parent strain HIV-1 (xxLAI), row HIV-1 (D67N/K70R/M184V/T215Y/K219Q), read-out: Untreated EC50) was 20000 nM and the EC50 ([3]; Human immunodeficiency virus 1, MT2, parent strain HIV-1 (xxLAI), row HIV-1 (D67N/K70R/T215Y/K219Q), read-out: Untreated EC50) was 20000 nM. For the same molecule, the EC50 ([3]; Human immunodeficiency virus 1, MT2, parent strain HIV-1 (xxLAI), row HIV-1 (M41L/D67N/M184V/H208Y/L210W/R211K/L214F/T215Y), read-out: Untreated EC50) was 20000 nM, the EC50 ([3]; Human immunodeficiency virus 1, MT2, parent strain HIV-1 (xxLAI), row HlV-1 (M184V), read-out: Untreated EC50) was 20000 nM and the EC50 ([4]; Human immunodeficiency virus 1, MT4, clinical isolate (pre) prior to long-term ZDV monotherapy, row HIV-1 (A-161), read-out: Untreated EC50) was 600 nM. The EC50 ([4]; Human immunodeficiency virus 1, MT4, clinical isolate (pre) prior to long-term ZDV monotherapy, row HIV-1 (C-246), read-out: Untreated EC50) was 600 nM, the EC50 ([4]; Human immunodeficiency virus 1, MT4, clinical isolate (pre) prior to long-term ZDV monotherapy, row HIV-1 (G-68), read-out: Untreated EC50) was 600 nM and the EC50 ([4]; Human immunodeficiency virus 1, MT4, clinical isolate (pre) prior to long-term ZDV monotherapy, row HIV-1 (R-102), read-out: Untreated EC50) was 600 nM. It also gave an EC50 ([4]; Human immunodeficiency virus 1, MT4, clinical isolate (pre) prior to long-term ZDV monotherapy, row HIV-1 (X-78), read-out: Untreated EC50) of 600 nM, an EC50 ([4]; Human immunodeficiency virus 1, MT4, clinical isolate HIV-1 (A-161), long-term ZDV monotherapy, read-out: Selected Varient EC50) of 8600 nM and an EC50 ([4]; Human immunodeficiency virus 1, MT4, clinical isolate HIV-1 (C-246), long-term ZDV monotherapy, read-out: Selected Varient EC50) of 10300 nM. The EC50 ([4]; Human immunodeficiency virus 1, MT4, clinical isolate HIV-1 (G-68), long-term ZDV monotherapy, read-out: Selected Varient EC50) was 500 nM, the EC50 ([4]; Human immunodeficiency virus 1, MT4, clinical isolate HIV-1 (R-102), long-term ZDV monotherapy, read-out: Selected Varient EC50) was 300 nM and the EC50 ([4]; Human immunodeficiency virus 1, MT4, clinical isolate HIV-1 (X-78), long-term ZDV monotherapy, read-out: Selected Varient EC50) was 500 nM. The EC50 [5, 10] was 400 nM, the EC50 ([5]; clinical isolate (pre) prior to long-term ZDV monotherapy, row HIV-1 (A018C), read-out: Untreated EC50) was 1000 nM and the EC50 ([5]; clinical isolate (pre) prior to long-term ZDV monotherapy, row HIV-1 (A036DD), read-out: Untreated EC50) was 600 nM. The EC50 ([5]; clinical isolate (pre) prior to long-term ZDV monotherapy, row HIV-1 (P022C), read-out: Untreated EC50) was 400 nM, the EC50 ([5]; clinical isolate (pre) prior to long-term ZDV monotherapy, row HIV-1 (P026B), read-out: Untreated EC50) was 400 nM and the EC50 [5, 11] was 89000 nM. It also gave an EC50 ([5]; clinical isolate HIV-1 (A018C:D67N/K70R/T215Y/K219Q), read-out: Selected Varient EC50) of 50000 nM, an EC50 ([5]; clinical isolate HIV-1 (A036DD:M41L/D67N/K70R/T215Y), read-out: Selected Varient EC50) of 56000 nM and an EC50 ([5]; clinical isolate HIV-1 (P022C:M41L?/D67N/K70R/T215F/K219Q), read-out: Selected Varient EC50) of 40000 nM. The EC50 ([5]; clinical isolate HIV-1 (P026B:M41L?/D67N/K70R/T215Y), read-out: Selected Varient EC50) was 100000 nM, the “activity against multiple-drug resistant forms of HIV” value [6] was “active” and the “susceptibility of multiple dideoxynucleoside resistant viruses” value [6] was “resistant”. For the same molecule, the anti-HIV activity [7] was “significant anti-HIV activity” and the “toxicity compared with AZT” value [8] was “lower toxicity than AZT”.
